Assay results: patent publication US11766468B2, “Method of treating prostate cancer with GnRH antagonist” (priority 2012, dated 2023)
Marks after values point to notes of the source that are not given here.

Test: CS21 safety: treatment-emergent adverse events (MedDRA SOC/PT), crude incidence, also by subgroup
Format: in vivo
Conditions: for Musculoskeletal and connective tissue disorders, % of patients: pooled degarelix
Description: The safety variables for this study were assessed on the following: the frequency and severity of adverse events (AEs); the presence of clinically significant changes in laboratory parameters (clinical chemistry, hematology and urinalysis); changes in electrocardiograms (ECGs) and vital signs; changes detected by physical examination; and body weight.
An AE was therefore any unfavorable or unintended sign (including an abnormal laboratory finding), symptom or disease temporally associated with the use of the product, whether or not related to the IMP.
An adverse drug reaction (ADR) was defined as an AE evaluated by the investigator as being probably or possibly related to treatment with the IMP.
AEs were graded according to the National Cancer Institute (NCI) Common Terminology Criteria for Adverse Events (CTCAE). In accordance with the CTCAE criteria, AEs were rated on a five-point scale corresponding to mild, moderate, severe, life-threatening or disabling and death. For those AEs not described in the CTCAE, a separate five-point rating scale was used for rating of the intensity of AEs as follows below:
Safety parameters were evaluated for all patients included in the ITT analysis set, comprising all 610 randomized patients who received at least one dose of study medication. All safety tables include four columns: the three treatment groups described separately, and the pooled degarelix group.
Adverse events were regarded as ‘treatment-emergent’ if they occurred in the time interval from initial dosing to end-of-study. Adverse events were considered ‘pre-treatment’ if they occurred between screening and the initial injections of IMP. As described above, all AEs were classified according to MedDRA (version 10.0) system organ class (SOC), sorted alphabetically, and by preferred term (PT), in decreasing frequency of occurrence. Treatment-emergent AEs were expressed in terms of intensity (using NCI CTCAE) and relationship to study drug.
Using the results from the summary of clinical efficacy (SCE) and summary of clinical safety (SCS) findings, different patient subgroups were analyzed. Subgroup distinguishers included race (white, black, and other), age (<65 years, […], and >75 years), weight (<70 kg, ≥70−<90 kg, and ≥90 kg), body mass index (BMI) (≤20, >20 to 30, and >30 kg/m^2)), region (North-America, Western Europe, Central and Eastern Europe and Other), and stage of prostate cancer (e.g., localized, locally advanced, and metastatic).

[1] = degarelix Total (pooled), leuprolide 7.5 mg
[2] = degarelix Total (pooled), leuprolide 7.5 mg, listed as leuprolide

CCNC(=O)[C@@H]1CCCN1C(=O)[C@H](CCCNC(=N)N)NC(=O)[C@H](CC(C)C)NC(=O)[C@@H](CC(C)C)NC(=O)[C@H](Cc1ccc(O)cc1)NC(=O)[C@H](CO)NC(=O)[C@H](Cc1c[nH]c2ccccc12)NC(=O)[C@H](Cc1c[nH]cn1)NC(=O)[C@@H]1CCC(=O)N1 [Leuprolide, leuprolide, reference compound]
Musculoskeletal and connective tissue disorders, % of patients (Age <65): (34%)** | Musculoskeletal and connective tissue disorders, % of patients (PCA = Localised): (25%) | Musculoskeletal and connective tissue disorders, % of patients (PCA = Locally advanced): (19%) | Musculoskeletal and connective tissue disorders, % of patients (PCA = Metastatic): (36%) | Musculoskeletal and connective tissue disorders, % of patients (Race = White): (26%)** | Musculoskeletal and connective tissue disorders, % of patients (Weight <70 kg): (36%)* | Musculoskeletal and connective tissue disorders, % of patients (Weight >=90 kg): (32%)* | Deaths (Grade 5), % of patients [1]: 4% | Deaths (Grade 5), E events [1]: 10 | Deaths (Grade 5), N patients [1]: 9 | Infections & infestations, % of patients [1]: (24%) | Musculoskeletal & connective tissue disorders, % of patients [1]: (26%) | Skin & subcutaneous tissue disorders, % of patients [1]: ( 5%) | Urinary tract infection, % of patients [1]: ( 9%) | Infections & infestations, % of patients [2]: 24% | Musculoskeletal & connective tissue disorders, % of patients [2]: 26% | Urinary tract infection, % of patients [2]: 9% | Atrioventricular block first degree, % of patients (in vivo): (6%)* | Bronchitis, % of patients (in vivo): ( 8%)* | Chest pain, % of patients (in vivo): ( 3%)* | Cystitis noninfective, % of patients (in vivo): (2%)* | Deep vein thrombosis, % of patients (in vivo): (2%)* | Depression, % of patients (in vivo): (6%)* | Diarrhoea, % of patients (in vivo): (8%)* | Dyspnoea, % of patients (in vivo): (6%)* | Excoriation, % of patients (in vivo): ( 4%) | Fall, % of patients (in vivo): ( 2%) | Gynaecomastia, % of patients (in vivo): (3%) | Injury, poisoning and procedural complications, % of patients (in vivo): (12%)** | Investigations, % of patients (in vivo): (30%) | Libido decreased, % of patients (in vivo): (3%) | Musculoskeletal stiffness, % of patients (in vivo): (2%)* | Myocardial ischaemia, % of patients (in vivo): ( 3%)* | Nervous system disorders, % of patients (in vivo): (10%) | Orthostatic hypotension, % of patients (in vivo): (2%)* | Pain in extremity, % of patients (in vivo): ( 9%) | Pelvic pain, % of patients (in vivo): (8%)* | Psychiatric disorders, % of patients (in vivo): (14%) | Respiratory, thoracic and mediastinal disorders, % of patients (in vivo): (10%) | Syncope, % of patients (in vivo): (2%)* | Vascular disorders, % of patients (in vivo): (30%)
